pIC50: −log10 of the molar value.
Key:
[1] = test system: panel of human cancer cell lines; assay: In vitro cytotoxicity assay (MTT), panel of cell lines; type: cell-based; conditions: panel of human cancer cell lines, in words
Text: (§1) Human cancer cell lines used in the present project were purchased from either the American Type Culture Collection (ATCC), The Leibniz Institute DSMZ German Collection of Microorganisms and Cell Cultures GmbH (DSMZ) or the European Collection of Authenticated Cell Cultures (ECACC). For use in experiments, cells were cultivated following good and established cell culture practices, following instructions from the original ATCC/DSMZ/ECACC supplier for cell culture media & supplement, cryopreservation, and subculturing procedures. Cells were incubated under a 5% CO2 atmosphere at 37°C for no longer than 2 months.
(§2) In vitro cytotoxicity of compounds of the disclosure was assessed on several cancerous human cell lines. Cells were plated in 96-well plates at an appropriate density depending on the cell line (between 1000 and 10 000 cells/well in 100µL of appropriate culture media) and incubated at 37°C for 24 hours. Serial dilutions of the tested compound previously dissolved in culture media (50µL) were added, and incubation was carried at 37°C out for 6 days. MTT (5mg/mL in PBS, 20µL, Sigma-Aldrich) was added into the wells, and incubation was continued for 1 to 4 hours at 37°C. Culture media was then carefully removed, and well content was homogeneously dissolved with acidified isopropanol. Absorbance values were measured on a microplate reader using a wavelength of 570 nm (with a reference wavelength of 690 nm). The IC50 concentration values compared to untreated control cells were determined using inhibition dose response curve fitting (GraphPad Prism 9). Exatecan mesylate (cat#HY-13631A) and CR8 (CAS# 294646-77-8; cat#HY-18340) were purchased from MedChemExpress (China).

CycK = biological target: T1, CycK (Homo sapiens, UniProt O75909); assay: CycK protein quantification by Western Blot in JIMT-1 cells; type: cell-based; conditions: 2h treatment, 10nM
T1 construct: endogenous in cells; host or cells: JIMT-1
T1 sequence (O75909 whole entry): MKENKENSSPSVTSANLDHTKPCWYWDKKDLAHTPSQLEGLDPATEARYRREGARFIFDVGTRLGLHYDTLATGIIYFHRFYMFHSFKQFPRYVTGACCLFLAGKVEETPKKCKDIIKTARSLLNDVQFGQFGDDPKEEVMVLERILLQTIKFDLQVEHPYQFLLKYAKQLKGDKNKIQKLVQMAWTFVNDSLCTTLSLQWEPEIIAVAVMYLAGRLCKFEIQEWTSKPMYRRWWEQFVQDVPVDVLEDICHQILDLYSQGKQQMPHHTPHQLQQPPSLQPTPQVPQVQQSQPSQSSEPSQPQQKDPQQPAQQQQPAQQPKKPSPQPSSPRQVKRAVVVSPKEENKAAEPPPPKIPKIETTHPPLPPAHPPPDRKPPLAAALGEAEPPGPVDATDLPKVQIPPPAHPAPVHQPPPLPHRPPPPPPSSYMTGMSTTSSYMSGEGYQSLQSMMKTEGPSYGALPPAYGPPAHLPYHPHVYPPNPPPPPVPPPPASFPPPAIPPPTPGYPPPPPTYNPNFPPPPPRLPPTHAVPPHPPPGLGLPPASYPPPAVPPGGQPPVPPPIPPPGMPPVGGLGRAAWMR
T1 sequence (Q9NYV4 whole entry partner): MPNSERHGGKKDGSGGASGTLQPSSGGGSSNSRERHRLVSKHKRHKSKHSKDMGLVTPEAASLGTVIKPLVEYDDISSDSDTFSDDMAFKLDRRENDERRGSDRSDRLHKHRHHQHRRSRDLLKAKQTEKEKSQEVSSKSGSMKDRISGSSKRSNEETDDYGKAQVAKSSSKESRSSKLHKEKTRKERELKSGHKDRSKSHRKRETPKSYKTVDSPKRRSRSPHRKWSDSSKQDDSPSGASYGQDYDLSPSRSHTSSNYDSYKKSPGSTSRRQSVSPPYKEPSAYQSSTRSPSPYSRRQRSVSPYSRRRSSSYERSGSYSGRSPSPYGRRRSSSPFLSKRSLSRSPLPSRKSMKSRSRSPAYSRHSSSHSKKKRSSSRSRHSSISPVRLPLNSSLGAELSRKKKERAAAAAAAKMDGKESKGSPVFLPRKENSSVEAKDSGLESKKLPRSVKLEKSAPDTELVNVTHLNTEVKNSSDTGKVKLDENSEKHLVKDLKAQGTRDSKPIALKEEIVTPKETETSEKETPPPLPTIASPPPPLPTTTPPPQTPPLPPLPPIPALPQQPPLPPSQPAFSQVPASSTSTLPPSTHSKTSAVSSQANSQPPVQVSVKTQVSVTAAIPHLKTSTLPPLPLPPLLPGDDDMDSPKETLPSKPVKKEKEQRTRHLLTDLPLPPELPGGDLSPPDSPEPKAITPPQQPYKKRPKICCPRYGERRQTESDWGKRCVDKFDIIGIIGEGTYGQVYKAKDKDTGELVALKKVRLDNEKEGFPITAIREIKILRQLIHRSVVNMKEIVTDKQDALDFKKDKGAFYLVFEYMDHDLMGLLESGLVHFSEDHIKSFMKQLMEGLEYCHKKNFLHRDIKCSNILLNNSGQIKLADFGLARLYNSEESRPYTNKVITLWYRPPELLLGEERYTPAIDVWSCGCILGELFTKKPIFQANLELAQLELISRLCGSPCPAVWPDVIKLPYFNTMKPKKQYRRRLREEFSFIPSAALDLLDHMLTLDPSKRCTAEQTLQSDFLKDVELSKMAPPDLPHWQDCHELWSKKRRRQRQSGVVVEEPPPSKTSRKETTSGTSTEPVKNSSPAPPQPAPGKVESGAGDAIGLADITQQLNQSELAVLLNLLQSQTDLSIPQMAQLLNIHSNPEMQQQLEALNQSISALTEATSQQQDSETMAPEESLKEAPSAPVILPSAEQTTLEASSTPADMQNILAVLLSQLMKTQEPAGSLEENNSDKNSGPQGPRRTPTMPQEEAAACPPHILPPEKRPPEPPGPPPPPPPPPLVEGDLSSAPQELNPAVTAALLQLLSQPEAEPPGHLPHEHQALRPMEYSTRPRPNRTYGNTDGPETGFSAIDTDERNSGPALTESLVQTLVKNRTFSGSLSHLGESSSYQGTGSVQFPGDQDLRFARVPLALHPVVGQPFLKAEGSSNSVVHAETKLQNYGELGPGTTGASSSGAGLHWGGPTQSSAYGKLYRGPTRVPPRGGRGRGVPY
T1 sequence (Q16531 whole entry partner): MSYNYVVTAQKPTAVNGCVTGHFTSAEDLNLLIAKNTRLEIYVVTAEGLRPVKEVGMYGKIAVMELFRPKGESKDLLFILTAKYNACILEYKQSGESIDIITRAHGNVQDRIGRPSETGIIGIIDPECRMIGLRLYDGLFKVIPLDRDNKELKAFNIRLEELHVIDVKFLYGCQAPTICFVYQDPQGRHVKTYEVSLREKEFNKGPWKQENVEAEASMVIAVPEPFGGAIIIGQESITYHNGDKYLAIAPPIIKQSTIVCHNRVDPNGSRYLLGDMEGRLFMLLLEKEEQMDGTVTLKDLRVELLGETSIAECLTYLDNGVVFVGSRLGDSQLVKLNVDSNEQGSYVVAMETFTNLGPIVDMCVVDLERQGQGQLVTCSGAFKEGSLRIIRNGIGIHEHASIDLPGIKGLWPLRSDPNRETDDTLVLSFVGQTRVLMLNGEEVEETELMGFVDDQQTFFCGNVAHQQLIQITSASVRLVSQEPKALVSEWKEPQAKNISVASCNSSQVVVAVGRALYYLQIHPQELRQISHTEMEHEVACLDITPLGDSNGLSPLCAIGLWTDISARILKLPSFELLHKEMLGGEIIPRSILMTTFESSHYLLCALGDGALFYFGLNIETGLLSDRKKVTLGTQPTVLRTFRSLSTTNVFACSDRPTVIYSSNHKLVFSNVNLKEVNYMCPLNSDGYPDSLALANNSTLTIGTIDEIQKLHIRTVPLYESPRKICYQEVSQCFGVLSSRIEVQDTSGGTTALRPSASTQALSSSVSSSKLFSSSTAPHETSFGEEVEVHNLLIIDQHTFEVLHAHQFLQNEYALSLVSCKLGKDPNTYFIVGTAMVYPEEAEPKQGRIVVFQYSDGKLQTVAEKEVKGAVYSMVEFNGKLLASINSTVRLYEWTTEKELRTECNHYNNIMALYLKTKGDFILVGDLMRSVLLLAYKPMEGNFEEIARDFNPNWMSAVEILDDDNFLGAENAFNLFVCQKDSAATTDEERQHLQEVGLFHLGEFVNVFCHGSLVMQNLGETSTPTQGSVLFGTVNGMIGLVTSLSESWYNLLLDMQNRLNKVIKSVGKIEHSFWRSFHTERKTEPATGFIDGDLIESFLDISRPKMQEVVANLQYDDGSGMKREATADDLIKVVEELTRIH
Method: 1×10^6 JIMT-1 cells were plated in 3mL of DMEM/FBS 90:10 (v/v) in 6-well plates and incubated overnight. Cells were treated with the compound 2384 of the invention with or without the proteasome inhibitor MG-132 (MedChemExpress, Cat HY-13259) for 2h. Cells were harvested, and protein were extracted using complete RIPA buffer (RIPA buffer, 1 mM DTT, 1M NaF, 100 mM sodium orthovanadate, phosphatase inhibitor buffer and protease inhibitors) for 1 hour on ice. Lysate were centrifuged 15min at 12 000g at 4°C. and proteins were mixed with 4x Laemmli Sample Buffer (Bio-Rad), heated at 95 °C for 5 mins and separated by SDS PAGE (PROTEAN TGX Stain-Free Gels, Bio-Rad). Proteins were then transferred onto PVDF membrane (iBlot®2 PVDF stacks, Invitrogen) using the iBlot2 device (Invitrogen) and blocked with TBS buffer (Intercept® Blocking Buffer, LI-COR Biosciences). Primary antibodies were incubated overnight at 4°C and secondary antibodies (IRDye Infrared Dyes from LI-COR Biosciences) 1 hour at room temperature. Used primary antibody were: anti-CycK (cat#A301-939A, Bethyl Laboratories, dil. 1:1000) and anti-β-actin (cat#A5441, Sigma-Aldrich, dil. 1:5000). Membranes were scanned using a c500 Imaging System (Azure Biosystems) and densitometric quantification were performed using imaged software. Protein levels were normalized against β-actin.

JIMT-1 cells = assay: Cell cycle arrest assessment (propidium iodide, flow cytometry); type: cell-based, human
Method: 1×10^6 JIMT-1 cells were plated in 3mL of DMEM/FBS 90:10 (v/v) in 6-well plates and incubated overnight. Cells were treated with the compound 2384 of the invention or with CR8 for 24h. Cells were then harvested and washed three times with PBS. Cells were suspended into 300µL of propidium iodide working solution (0.05mg/mL) and incubated for 45 minutes at 4°C in the dark. Analysis was performed using a BD Fortessa flow cytometer controlled by BD FACSDiva software (BD Biosciences) and data were analyzed using FlowJo software (BD Bioscience).

MDA-MB-453 = assay: In vitro cytotoxicity assay (MTT); type: cell-based, human; conditions: 6 days incubation
Text: as §1, §2

SKBR-3 = assay: In vitro cytotoxicity assay (MTT); type: cell-based, human; conditions: 6 days incubation
Text: as §1, §2

MDA-MB-231 = assay: In vitro cytotoxicity assay (MTT); type: cell-based, human; conditions: 6 days incubation
Text: as §1, §2

NCI-N87 = assay: In vitro cytotoxicity assay (MTT); type: cell-based, human; conditions: 6 days incubation
Text: as §1, §2

BT-474 = assay: In vitro cytotoxicity assay (MTT); type: cell-based, human; conditions: 6 days incubation
Text: as §1, §2

JIMT-1 = assay: In vitro cytotoxicity assay (MTT); type: cell-based, human; conditions: 6 days incubation
Text: as §1, §2

`CC[C@H](CO)Nc1nc(NCc2ccc(-c3ccccn3)cc2)c2ncn(C(C)C)c2n1` [CR8, reference compound] was tested, and the “in vitro cytotoxic potency” value [1] was “high nanomolar range”, the CycK degradation (CycK) was “no CycK was observed” and the “cell cycle analysis (propidium iodide)” value (JIMT-1 cells; 24h, 50 nM) was “arrest in G2/M phase”. For the same molecule, the “cell cycle analysis (propidium iodide)” value (JIMT-1 cells; 24h, 2, 5, and 10 nM) was “no impact on cell cycle”, the pIC50 (MDA-MB-453) was 7.39 and the pIC50 (SKBR-3) was 7.51. For the same molecule, the pIC50 (MDA-MB-231) was 7.98, the pIC50 (NCI-N87) was 7.21 and the pIC50 (BT-474) was 7.74. The pIC50 (JIMT-1) was 7.60.
